Source: patent US20190175534A1, “PHARMACEUTICAL COMPOSITIONS COMPRISING DGLA AND USE OF SAME” (DS Biopharma Limited, priority 2016, published 2019)

Test system: patients with moderate to severe atopic dermatitis
Assay: Phase II placebo-controlled study of oral DS107G: efficacy (IGA, EASI, SCORAD, pruritus VAS, BSA)
Type: in vivo, human
Conditions: for IGA Non-Responders at Week 8, (%) / IGA Responders at Week 8, (%) / IGA Score Week 8: 0 - Clear, (%) / IGA Score Week 8: 1 - Almost Clear, (%) / IGA Score Week 8: 2 - Mild, (%) / IGA Score Week 8: 3 - Moderate, (%) / IGA Score Week 8: 4 - Severe, (%) / IGA Score Week 8: 5 - Very Severe, (%): ITT; for Visual analog scale of pruritus, Week 8/ET Actual, Mean / Visual analog scale of pruritus, Week 8/ET Actual, Median: oral 2 g once daily
Description: A randomised, double-blind, placebo-controlled, phase II study was performed to assess the efficacy and safety of orally administered DS107G (DGLA) to patients with moderate to severe atopic dermatitis. The primary objective of the study was to compare the efficacy of orally administered DS107G capsules, versus placebo, in the treatment of adult patients with moderate to severe atopic dermatitis. The secondary objective was to assess the safety of orally administered DS107G capsules, versus placebo, in adult patients with moderate to severe atopic dermatitis. The primary study endpoint was the proportion of patients achieving an IGA (Investigator Global Assessment) of 0 (clear) or 1 (almost clear) and a decrease of at least 2 points in IGA at week 8. Secondary study endpoints included:
Approximately 100 patients with moderate to severe atopic dermatitis were included in this multicenter, double-blind, placebo controlled, phase IIa study. All subjects signed an informed consent and underwent screening for study eligibility. Subjects were randomized (1:1) at baseline visit to either receive oral DS107G 2 g or placebo, once daily for 8 weeks in a fasting state.
Subjects visited the clinic on 6 occasions: at screening, baseline, week 2, week 4, week 8 (end of treatment/early termination) and week 10 (follow-up). All subjects exited the study at the week 10 visit. The primary efficacy variable was the proportion of patients achieving an IGA of 0 (clear) or 1 (almost clear), and a decrease of at least 2 points in IGA at week 8. Secondary efficacy variables included: IGA at other visits, pruritus (obtained from the SCORAD visual analog scale), EASI, BSA, POEM, DLQI, SCORAD and TEWL (for selected sites only). Safety was assessed through adverse events, physical examination, vital signs and safety laboratory tests (including pregnancy tests for women of childbearing potential), Pharmacokinetic samples were obtained at Baseline (Day 0), week 4 and week 8 visits in order to measure total and free DGLA plasma trough levels. Separate plasma samples were retained for later analysis of total fatty acid profile and interleukin profile.
The EASI is a composite score ranging from 0-72 that takes into account the degree of erythema, induration/papulation, excoriation, and lichenification (each scored from 0 to 3 separately) for each of four body regions, with adjustment for the percent of BSA involved for each body region and for the proportion of the body region to the whole body. A detailed procedure of EASI score calculation is provided below.
SCORAD is calculated as follows: Six items (erythema, edema/papulation, oozing/crusts, excoriation, lichenification, and dryness) are selected to evaluate the AD severity. The intensity of each item is graded using a 4-point scale:
The overall BSA affected by AD is evaluated (from 0 to 100%) and divided by 5. One patient's palm represents 1% of his/her total BSA. The maximum is 20.
Subjective items include loss of sleep and the occurrence of pruritus. These are evaluated by asking patients to indicate on the 10-cm scale (0-10) on the assessment form the point corresponding to the average value for the last three days/nights. The combined maximum score of these two is 20.
The sum of the above measures represents the SCORAD which can vary from 0 to 103. If the subjective scores of pruritus and loss of sleep are excluded, the SCORAD becomes objective SCORAD (score range 0-83).
Body Surface Area (BSA). The overall BSA affected by AD will be evaluated (from 0 to 100%) at each visit. One patient's palm represents 1% of his/her total BSA. For all study visits, except at screening, the BSA of involved skin will be measured with the SCORAD measurement and evaluated as a separate endpoint.
Subjects who fulfilled all the inclusion and none of the exclusion criteria were accepted in the study. Each subject read and signed an informed consent form prior to any screening procedures being performed. […]

[1] = oral 2 g once daily 8 weeks, n 35

SMILES: CCCCC/C=C\C/C=C\C/C=C\CCCCCCC(=O)O [DGLA, Dihomo gamma linolenic acid]
- IGA Non-Responders at Week 8, (%) (Moderate at baseline): (72.4) %
- IGA Responders at Week 8, (%) (Moderate at baseline): (27.6) %
- IGA Score Week 8: 0 - Clear, (%) (Moderate at baseline): (13.8) %
- IGA Score Week 8: 1 - Almost Clear, (%) (Moderate at baseline): (13.8) %
- IGA Score Week 8: 2 - Mild, (%) (Moderate at baseline): (20.7) %
- IGA Score Week 8: 3 - Moderate, (%) (Moderate at baseline): (13.8) %
- IGA Score Week 8: 4 - Severe, (%) (Moderate at baseline): (3.4) %
- IGA Score Week 8: 5 - Very Severe, (%) (Moderate at baseline): (0.0) %
- IGA Non-Responders at Week 8, (%) (Very Severe/Severe at baseline): (72.7) %
- IGA Score Week 8: 0 - Clear, (%) (Very Severe/Severe at baseline): (0.0) %
- IGA Score Week 8: 1 - Almost Clear, (%) (Very Severe/Severe at baseline): (13.6) %
- IGA Score Week 8: 2 - Mild, (%) (Very Severe/Severe at baseline): (13.6) %
- IGA Score Week 8: 3 - Moderate, (%) (Very Severe/Severe at baseline): (27.3) %
- IGA Score Week 8: 4 - Severe, (%) (Very Severe/Severe at baseline): (13.6) %
- IGA Score Week 8: 5 - Very Severe, (%) (Very Severe/Severe at baseline): (4.5) %
- IGA Responders at Week 8, (%) (Very Severe/Severe at baseline, p-value 0.542): (27.3) %
- IGA Non-Responders at Week 8, (%) (total population (N = 51)): (72.5) %
- IGA Score Week 8: 0 - Clear, (%) (total population (N = 51)): (7.8) %
- IGA Score Week 8: 1 - Almost Clear, (%) (total population (N = 51)): (13.7) %
- IGA Score Week 8: 2 - Mild, (%) (total population (N = 51)): (17.6) %
- IGA Score Week 8: 3 - Moderate, (%) (total population (N = 51)): (19.6) %
- IGA Score Week 8: 4 - Severe, (%) (total population (N = 51)): (7.8) %
- IGA Score Week 8: 5 - Very Severe, (%) (total population (N = 51)): (2.0) %
- IGA Responders at Week 8, (%) (total population, decrease of at least 2 points in IGA score, p-value 0.065 (Cochran-Mantel-Haenszel), 0.228 (Fisher Exact)): (27.5) %
- Visual analog scale of pruritus, Week 8/ET Actual, Mean (Table 9A (Week 4), n 35): 4.6
- Visual analog scale of pruritus, Week 8/ET Actual, Median (Table 9A (Week 4), n 35): 4.0
- Visual analog scale of pruritus, Week 8/ET Actual, Mean (Table 9B (Week 8), n 35): 4.6
- Visual analog scale of pruritus, Week 8/ET Actual, Median (Table 9B (Week 8), n 35): 4.0
- EASI, Change from baseline, LSMEANS (Week 8/ET, ANCOVA, p-value 0.831 vs placebo): −8.0
- Primary efficacy end point (two point drop in IGA and end of treatment IGA of 0 or 1) over placebo (intent to treat analysis, overall, p=0.057): clinically significant trend
- Primary efficacy end point (two point drop in IGA and end of treatment IGA of 0 or 1) over placebo (moderate patient subgroup (n=67), p=0.036): statistically significant improvement
- Body surface area affected by atopic dermatitis, Week 8/ET Actual, Median [1]: 12.0
- EASI, Week 8/ET Actual, Median [1]: 7.4
- Eczema area and severity index (EASI), Week 8/ET Actual, Mean [1]: 9.3
- Pruritus score [visual analog scale] (within four weeks of dosing, p=0.015): statistically significant reduction of itch
